As a reminder, the IC50 is the concentration that inhibits the measured activity by half. A higher IC50 goes with lower potency. By inhibition is commonly meant the change of the read-out against control, counted positive when it falls. Lower therefore signals a weak effect. What is called logD is lipophilicity at a set pH, counting ionised and neutral species. Read a low logD as lower lipophilicity.

Consider 26 compounds from ChEMBL document CHEMBL4619717, “Novel quinolin-4(1H)-one derivatives as multi-effective aldose reductase inhibitors for treatment of diabetic complications: Synthesis, biological evaluation, and molecular modeling studies” (Bioorg Med Chem Lett, 2020).

For data set [1], the target named is Aldo-keto reductase family 1 member B1 (Rattus norvegicus, UniProt P07943). In words: Inhibition of AKR1B1 in rat lenses.
The nature of data set [2]: Antioxidant activity assessed as DPPH radical scavenging activity at 100 uM relative to control. The format is functional. (DPPH is a stable violet radical that fades when it is reduced.)
For data set [3], the target named is T1, AKR1A1 (aldo-keto reductase family 1 member A1) (Rattus norvegicus, UniProt P51635).
T1 sequence (P51635 whole entry): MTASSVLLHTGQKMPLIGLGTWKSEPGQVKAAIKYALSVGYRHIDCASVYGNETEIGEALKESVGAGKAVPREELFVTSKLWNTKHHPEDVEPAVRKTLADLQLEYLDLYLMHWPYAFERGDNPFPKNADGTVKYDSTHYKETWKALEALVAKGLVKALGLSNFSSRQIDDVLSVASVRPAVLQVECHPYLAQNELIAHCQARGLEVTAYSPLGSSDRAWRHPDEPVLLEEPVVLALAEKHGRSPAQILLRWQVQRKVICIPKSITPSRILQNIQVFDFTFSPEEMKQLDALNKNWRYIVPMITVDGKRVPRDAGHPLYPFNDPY
In words: Inhibition of AKR1A1 in rat kidney at 10 uM relative to control.

The nature of data set [4]: Antioxidant activity assessed as DPPH radical scavenging activity at 50 uM relative to control. The data set is classed as functional.
Data set [5] is described as follows: Antioxidant activity assessed as DPPH radical scavenging activity at 10 uM relative to control. The format is functional.
Data set [6] in a line: n-octanol/aqueous buffer distribution coefficient, logD of compound at pH 7.4 by shake flask assay based HPLC-MS analysis. The format is physicochemical.

In data set [1], `COc1ccc(Cn2cc(C(=O)O)c(=O)c3ccccc32)cc1` returned an IC50 of 12 µM. The Activity in data set [2] stood at 30.5%.
Consider `COc1ccc(Cn2cc(C(=O)NO)c(=O)c3ccccc32)cc1`, for which half-maximal inhibition in data set [1] (IC50) required 12.5 µM. For the same compound, the inhibition at 10 µM in data set [3] was 7.6%. Moreover, the Activity in data set [2] was found to be 34.1%.
In data set [1], `CS(=O)(=O)NC(=O)c1cn(Cc2cc(O)cc(O)c2)c2ccccc2c1=O` yielded an IC50 of 0.112 µM. 10 µM produced 24.7% inhibition in data set [3]. Further, the Activity in data set [2] worked out at 79.4%; in data set [4], 64.7%; in data set [5], 33.6%.
In the case of `O=C(O)c1cn(Cc2ccccc2)c2ccccc2c1=O`, in data set [1], half-maximal inhibition (IC50) required 11 µM. The compound also showed an inhibition at 10 µM in data set [3] of 5.8%. In data set [2], the Activity amounted to 20.3%. The same compound showed a log distribution coefficient (logD) in data set [6] of 0.82.
In data set [1], `O=C(O)c1cn(Cc2ccc(Br)cc2)c2ccccc2c1=O` gave an IC50 of 1.53 µM. In data set [3], this compound had an inhibition at 10 µM of 20.1%. For the same compound, the Activity in data set [2] was found to be 25.4%.
As to `O=C(NO)c1cn(Cc2ccc(F)cc2)c2ccccc2c1=O`, in data set [1], the IC50 was found to be 0.237 µM. The compound also registered an inhibition at 10 µM in data set [3] of 24.1%. In addition, the Activity in data set [2] was 32.1%.
In data set [1], `O=C(NO)c1cn(Cc2ccc(O)c(O)c2)c2ccccc2c1=O` yielded an IC50 of 0.287 µM. In addition, 10 µM produced 25.4% inhibition in data set [3]. The Activity in data set [2] is 88.1%; in data set [4], 65.1%; in data set [5], 51.1%.
In data set [1], `O=C(O)c1cn(Cc2ccc(O)c(O)c2)c2ccccc2c1=O` gave a half-maximal inhibitory concentration (IC50) of 0.251 µM. In data set [3], this compound showed an inhibition at 10 µM of 38.6%. For the same compound, the Activity in data set [2] is 87.1%; in data set [4], 61.9%; in data set [5], 44.9%.
Take `O=C(NO)c1cn(Cc2cc(O)cc(O)c2)c2ccccc2c1=O`: in data set [1], the IC50 was 0.065 µM. In data set [3], this compound returned an inhibition at 10 µM of 27.4%. Besides, the Activity in data set [2] was determined as 91%; in data set [4], 72.4%; in data set [5] it was 57.8%. The logD in data set [6] turned out to be 1.32.
Regarding `COc1cc(Cn2cc(C(=O)O)c(=O)c3ccccc32)cc(OC)c1`, in data set [1], the IC50 is 9.87 µM. In data set [3], this compound yielded an inhibition at 10 µM of 30.1%. Moreover, the Activity in data set [2] came to 47.6%.
In the case of `O=C(O)c1cn(Cc2ccc(O)cc2)c2ccccc2c1=O`, in data set [1], the IC50 is 0.098 µM. In data set [3], this compound had an inhibition at 10 µM of 37.5%. The values for the Activity in data set [2], in data set [4] and in data set [5] were 62.7%, 30.4% and 14.6%, respectively.
Regarding `COc1ccc(Cn2cc(C(=O)O)c(=O)c3ccccc32)cc1OC`, 10.6 µM corresponded to half-maximal inhibition in data set [1] (IC50). This compound also returned an inhibition at 10 µM in data set [3] of 24.8%. In data set [2], the Activity is 32.2%.
As for `Cc1c(C)c2c(c(C)c1O)CCC(C)(C(=O)O)O2` (stereo not drawn), the figures for the Activity in data set [2], in data set [4] and in data set [5] were 94.2%, 84.1% and 77.2%, respectively.
Regarding `CC(/C=C1\SC(=S)N(CC(=O)O)C1=O)=C\c1ccccc1`, the inhibition at 10 µM in data set [3] was found to be 43.1%.
With `O=C(O)c1cn(Cc2ccc(F)cc2)c2ccccc2c1=O`, 0.154 µM corresponded to half-maximal inhibition in data set [1] (IC50). In addition, the inhibition at 10 µM in data set [3] was determined as 30.2%. Also, the Activity in data set [2] is 21.4%.
In the case of `CONC(=O)c1cn(Cc2cc(O)cc(O)c2)c2ccccc2c1=O`, half-maximal inhibition in data set [1] (IC50) was put at 0.689 µM. Moreover, the inhibition at 10 µM in data set [3] amounted to 21.7%. The Activity was 88.7% in data set [2], 55.8% in data set [4] and 42.7% in data set [5]. The compound further yielded a logD in data set [6] of 0.73.
In turn, `CS(=O)(=O)NC(=O)c1cn(Cc2ccccc2)c2ccccc2c1=O` displayed an IC50 in data set [1] of 15 µM. In data set [3], this compound registered an inhibition at 10 µM of 7.9%. The Activity in data set [2] is 28.7%. The same compound displayed a logD in data set [6] of 0.53.
With `COc1ccc(Cn2cc(C(=O)NO)c(=O)c3ccccc32)cc1OC`, the IC50 in data set [1] turned out to be 13.6 µM. In data set [3], this compound showed an inhibition at 10 µM of 10.5%. In data set [2], the Activity worked out at 39.1%.
As to `O=C(NO)c1cn(Cc2ccccc2)c2ccccc2c1=O`, the IC50 in data set [1] turned out to be 12.6 µM. Besides, the inhibition at 10 µM in data set [3] turned out to be 7.1%. Moreover, the Activity in data set [2] worked out at 27.1%. The compound further showed a logD in data set [6] of 1.53.
In data set [1], `O=C(O)c1cn(Cc2cc(O)cc(O)c2)c2ccccc2c1=O` gave an IC50 of 0.057 µM. In addition, the inhibition at 10 µM in data set [3] amounted to 36.6%. For the same compound, the Activity in data set [2] turned out to be 92.4%; in data set [4], 71.1%; in data set [5], 51.7%. In data set [6], the log distribution coefficient (logD) amounted to 0.57.
Consider `O=C(NO)c1cn(Cc2ccc(Cl)cc2)c2ccccc2c1=O`, for which the IC50 in data set [1] is 0.626 µM. Moreover, in data set [3], testing at 10 µM gave an inhibition of 26.5%. Further, the Activity in data set [2] stood at 31.7%.
As for `CONC(=O)c1cn(Cc2ccccc2)c2ccccc2c1=O`, in data set [1], the IC50 is 12.8 µM. The compound also showed an inhibition at 10 µM in data set [3] of 5.1%. Also, in data set [2], the Activity amounted to 25.2%. Further, the logD in data set [6] is 1.19.
`O=C(NO)c1cn(Cc2ccc(Br)cc2)c2ccccc2c1=O` registered an IC50 in data set [1] of 2.49 µM. The inhibition at 10 µM in data set [3] was 17.6%. Besides, the Activity in data set [2] was 27.6%.
On the same counts, the results for `COc1cc(Cn2cc(C(=O)NO)c(=O)c3ccccc32)cc(OC)c1` are 15.6 µM, 17.2% and 41.3%.
In the same order, the values of `O=C(O)c1cn(Cc2ccc(Cl)cc2)c2ccccc2c1=O` are 0.321 µM, 18.3% and 28.7%.
`O=C(NO)c1cn(Cc2ccc(O)cc2)c2ccccc2c1=O` showed an IC50 in data set [1] of 0.107 µM. At 10 µM the inhibition in data set [3] was 34.6%. Besides, the Activity in data set [2] is 74.9%; in data set [4] it was 51.1%; in data set [5] it was 32.3%.
